# No end group written: not given here.
# How the values were obtained:
# [1] = target: T1, streptavidin (Streptomyces avidinii, UniProt P22629); experiment: Inhibition of TSAR binding to streptavidin by biotin and biotin analogs; conditions: for IC50: representative TSARs SA-1, -2, -4 and -14
# T1 construct: purchased Advanced Magnetics, Cambridge, Mass
# Method: Specificity of the binding of the identified proteins for streptavidin was investigated by evaluating inhibition of binding by biotin and by a number of biotin analogs, including diaminobiotin, immunobiotin, lipoic acid and imidazalidone. Four representative TSARs, pictured in Table 9, were evaluated, i.e., SA-1,-2, -4 and -14 (SEQ ID NOs. 116, 114, 104 and 117).
# [2] = Immobilized metal affinity chromatography of phage on Zn(II)-IDA; assay type: binding; conditions: for relative retention by Zn(II)-IDA: comparison of four clones
# Method: The TSAR-9 random peptide library was subjected to IMAC chromatography as follows: 0.5 ml bed volume iminodiacetic acid (IDA) Sepharose (Sigma Chemical Co.) columns were washed with 1 ml of sterile doubly distilled (dd) H2 O, charged with 5 ml of 10 mM ZnCl2 in dd H2 O followed by 3 ml sterile dd H2 O and equilibrated with 10 ml 10 mM Tris-HCl, 150 mM NaCl, 0.1% Tween-20, pH 7.5 (T10NT) to prepare the Zn(II) IDA column. 10^12 pfu of the TSAR-9 random peptide library were passed over the Zn(II) IDA column and washed with 10 ml T10NT. Bound phage were eluted with 500 μl 200 mM glycine-HCl, pH 2.2 and the pH was then neutralized with 500 μl 1 M phosphate buffer, pH 7.5+1 ml T10NT. Eluted phage were subjected to two further rounds of selection and the resulting population was amplified by overnight growth on a lawn of E. coli DH5αF'.
# To quantitate the relative binding of the Zn(II)-IDA selected TSARs, each TSAR encoding phage was chromatographed over Zn(II)-IDA. Three fractions were collected and titered for phage: wash (unbound), elution (bound, eluted), and column (bound, not eluted).
# The binding specificity of a number of the identified Zn-binding proteins was evaluated by chromatography using IDA columns charged with Zn^+2, Cu^+2 or Ni^+2. A particular Zn-binding phage (10×10^11 pfu) in 1 ml of 100 mM Tris-HCl, 150 mM NaCl, 0.1% Tween-20, pH 7.5 (T100NT) was loaded onto a Zn(II)-, Cu(II)- or Ni(II)-IDA column and the columns were washed as described above, except that T100NT was substituted for T10NT. The columns were eluted with acid; Zn^+2 (2 ml 100 mM ZnCl2 in T1OONT, pH 7.5), or imidazole (2 ml 100 mM imidazole in T100NT, pH 7.5). Three fractions were collected and titered for the presence of phage: the wash fraction (.box-solid.), the elution fraction and the metal II-IDA column matrix resuspended in T10NT (.quadrature.).Results obtained are shown in FIG. 16 A and B.
# [3] = test system: C46 monoclonal antibody; experiment: Competition of CEA with phage for binding to immobilized C46 antibody; parameters: species or system mouse; conditions: CEA 1, 25, 250, 2500 ng; FIG. 17
# Method: Microtiter dish wells were coated with 50 μl of the C46 monoclonal antibody (5 μg/ml in 100 mM NaHCO3, pH 8.5) for 2 hr at 4° C. To the wells, 50 μl of BSA (1 mg/ml in 100 mM NaHCO3, pH 8.5) were added and the wells incubated for 30 min. at room temperature. The wells were washed (5×) with PBS-0.05% Tween 20.
# To each well was added either 25 μl of C46-binding phage (C46.9-1 or C46.9-2) and increasing amounts of highly purified CEA (1, 25, 250, 2500 ng) (Scripps Clinic). After 2 hr incubation at room temperature, the wells were washed (10×) with PBS-0.05% Tween 20. 25 μl of 200 mM glycine-HCl (pH 2.2) were then added to the wells and they were incubated at room temperature for 5 min. The liquid was then transferred to new microtiter dish wells that contained 50 μl of 1M NaHPO4. The contents of the well were then serially diluted and aliquots were plated to count plaques.
# [4] = test system: 7E11-C5 antibody; experiment: Relative affinity: phage binding to microtiter plates coated with differing amounts of 7E11-C5; parameters: species or system mouse; conditions: plates coated with 0, 4, 20, 100 and 500 ng antibody
# Method: The relative affinity of the different 7E11-C5 binding TSARs for the 7E11-C5 antibody was compared. Microtiter plates were coated with differing amounts of the antibody (i.e., 0, 4, 20, 100 and 500 ng) prior to phage binding. Our prediction was that the TSAR with the highest affinity for the antibody would still bind effectively to wells coated with lower amounts of antibody. […] These TSARs all have Y as the second amino acid in the motif. The next class of TSARs bound ~2-fold less well; as represented by 12-2, which also had Y as the second amino acid. Three TSARs bound 5-10 fold less well than the best binders as represented by 9-2, 9-4, and 12-4; their inserts had W or H at the second position of the motif. Finally, TSAR 12-3 bound 50-fold less well than the best binders; this TSAR has I and R in the second and sixth positions, respectively. Thus, it seems that the 7E11-C5 epitope can be mimicked by a linear peptide sequence that has both variant and invariant residues.
# [5] = test system: 7E11-C5 monoclonal antibody; experiment: Competitive binding ELISA: inhibition of 7E11-C5 binding to LNCaP cell lysate antigen; parameters: species or system mouse; conditions: for inhibition of 7E11-C5 binding to its antigen by phage: phage 6.3×10^7 to 6.3×10^11 pfu, 7E11-C5 30 ng/ml; for competitive inhibition of 7E11-C5 binding to LNCaP extract by peptide: peptides, amide form, FIG. 13
# Method: Each well of a polyvinylchloride 96-well ELISA plate (Cooke, Alexandria, Va.) was coated with an LNCAP human prostate carcinoma cell (ATCC # CRL 1740) lysate. Lysates were prepared by harvesting confluent LNCaP cell cultures, resuspending cells in 4 volumes of 1 mM MgCl2 for 5 minutes, mixing with 2 μg of DNase (Boehringer Mannheim, Indianapolis, Ind.) and homogenizing using 40 strokes in a Dounce homogenizer (Wheaton, Millville, N.J.). LNCaP lysate (50 μl per well of a 1:50 dilution in 0.1×PBS [Dulbecco's pH 7.2, JRH, Denver, Pa.]) was air dried overnight at 37° C. onto wells of the ELISA plate. ELISA plates were blocked with 150 μl/well of 1% BSA (Pentex Fraction V, Miles, Kankakee, Ill.) in PBS for 60 minutes at room temperature.
# The blank control consisted of blocking solution in the absence of primary antibody. 7E11-C5 monoclonal antibody pre-incubated with buffer without any phage (MAb) was the positive control. The expression vector m663 phage was also employed as a non-specific phage control.
# Plates were washed 4 times with 0.05% Tween-20 in PBS. Bound monoclonal antibody 7E11-C5 was detected by: (1) incubating with 50 μl/well of anti-mouse IgG1 -HRP (Fisher Biotech, Orangeburg, N.Y.) diluted to 0.4 ng/ml in 1% BSA-PBS, for 60 minutes at room temperature; (2) washing plates 6 times with 0.05% Tween-20 in PBS; and (3) adding 100 μl/well ABTS substrate [200 μl ABTS, (Boehringer Mannheim), 10 ml citrate buffer (pH 4), 10 μl H2 O2 ]. Optical density of the reactions products was determined by endpoint analysis on a Multiscan plate reader (Molecular Devices, Menlo Park, Calif.). The competitive inhibition (%) was determined by comparing the reactivity of the positive control to the test samples.
# (§1) The TSAR-based peptide (SEQ ID NO 31) concentration ranged from 1.75 to 1130 nM. […] Two additional control peptides (amide form) having the following amino acid sequences: RGD-21: NH2 -[…]-CONH2 (SEQ ID NO 32) and CYT-379: NH2 -[…]-CONH2 (SEQ ID NO 33) were also evaluated. Herein these control peptides are referred to as Control Peptide 1 and Control Peptide 2. […] The B139 monoclonal antibody, which is a murine IgG1 monoclonal antibody that reacts with all human epithelial cells, recognizes a different antigen in the LNCaP extract from that recognized by the 7E11-C5 antibody. The control B139 monoclonal antibody was used at a concentration of 9 ng/ml. The results obtained are illustrated in FIG. 13.
# [6] = test system: B139 monoclonal antibody; experiment: ELISA of control antibody binding to immobilized peptide; parameters: species or system murine; conditions: peptide coated at 5 μg/ml; FIG. 15
# Method: (§2) Peptides, diluted in 10% PBS (Dulbecco's, pH 7.2, Hazelton), were immobilized by adsorption on polyvinylchloride plates. SEQ ID NO 31 (amide form) was diluted in 10% PBS at 0.5, 5, 50 or 500 μg/ml. Control peptide 2 in 10% PBS at the same range of concentrations served as the control. A 50 μl volume of the test or control peptide solution was added to each well and incubated overnight at 4° C. The peptide solution was removed and 10% BSA-PBS was added as blocking solution. […] Bound 7E11-C5 monoclonal antibody was detected with anti-mouse IgG1 -HRP as described above herein.
# [7] = test system: B139 monoclonal antibody; experiment: Competitive binding ELISA: inhibition of B139 binding to LNCaP extract; parameters: species or system murine; conditions: B139 9 ng/ml; FIG. 13
# Method: as §1
# [8] = test system: 7E11-C5 monoclonal antibody; experiment: ELISA of antibody binding to immobilized peptide; parameters: species or system mouse; conditions: peptide adsorbed on polyvinylchloride plates, 0.5-500 μg/ml; FIG. 14, 15
# Method: as §2
# T1 sequence (P22629 25-183): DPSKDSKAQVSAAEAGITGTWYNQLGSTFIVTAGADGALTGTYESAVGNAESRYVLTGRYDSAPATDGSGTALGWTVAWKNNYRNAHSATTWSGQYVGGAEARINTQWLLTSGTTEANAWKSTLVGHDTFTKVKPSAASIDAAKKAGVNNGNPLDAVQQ
molecule,measurement,setting,value
O=C(O)CCCC[C@@H]1CCSS1 (racemic) [lipoic acid],IC50,[1],~1050 µM
N[C@@H]1[C@H](CCCCC(=O)O)SC[C@@H]1N [diaminobiotin],IC50,[1],~0.2 µM
N=C1N[C@H]2[C@H](CS[C@H]2CCCCC(=O)O)N1 [immunobiotin],IC50,[1],~3 µM
ATEQHYWTQYHKPYHPSVPGFHVKSVTETTDHWESRNG [Zn1B8],relative retention by Zn(II)-IDA,[2],exhibit the least retention
same,"retention on Zn(II)-IDA, of recovered phage",[2],85%
CNFRGQCVSAPQTSNSKSPGWDTTWHDFRKEQFYNLTS [C46-9.2],competition with CEA for binding to the C46 antibody,[3],competitive binding
FDHTYSGPVCVKNGGLVSPGVLS MYNRLH SDGGPSLAS [7E11.9-3],relative binding to 7E11-C5 (fold less well than the best binders),[4],bound the best
HSYHDVATTKPGSHCMHNPGHPPPPNCHMAKAHSHNRI [Zn1A12],relative retention by Zn(II)-IDA,[2],exhibit the least retention
IAHRVVAYNSLDSNPIWLPGEESSSVFGDY HPMF RAPV [SA-4],inhibition of TSAR binding to streptavidin by biotin and all the biotin analogs tested,[1],completely inhibited
IDMPETAST MYNMLH RNEPGGRKLSPPANDMPPALLKR [7E11.9-5],inhibition of 7E11-C5 binding to its antigen by phage,[5],"inhibited the binding of 7E11-C5 monoclonal antibody to its antigen, in a dose dependent fashion"
same,relative binding to 7E11-C5 (fold less well than the best binders),[4],bound the best
NAVRVDSGYPPNPNTFHLPGCIDVLSSGCRLFSAHSEY [C46-9.1],competition with CEA for binding to the C46 antibody,[3],competitive binding
NH2 -SYGRGDVRGDFKCTCCA-CONH2 (H-SYGRGDVRGDFKCTCCA-NH2; cysteine pairing not given here) [Control Peptide 2],competitive inhibition of 7E11-C5 binding to LNCaP extract by peptide,[5],did not effectively compete
same,binding of B139 to immobilized peptide,[6],did not bind to either of the tested antibodies
same,competitive inhibition of B139 binding to LNCaP extract by peptide,[7],neither SEQ ID NO 31 (amide form) nor either of Control Peptide 1 and Control Peptide 2 competitively inhibited the binding
same,binding of 7E11-C5 to immobilized peptide,[8],did not bind to either of the tested antibodies
PDYDLMSSTCRFYGCSKMPGGVAVNGLFAVQGHSKYSS [SA-1],inhibition of TSAR binding to streptavidin by biotin and all the biotin analogs tested,[1],completely inhibited
PSYYRGDAGPSYYRGDAG-NH2 [Control Peptide 1],competitive inhibition of 7E11-C5 binding to LNCaP extract by peptide,[5],did not effectively compete
same,binding of B139 to immobilized peptide,[6],did not bind to either of the tested antibodies
same,competitive inhibition of B139 binding to LNCaP extract by peptide,[7],neither SEQ ID NO 31 (amide form) nor either of Control Peptide 1 and Control Peptide 2 competitively inhibited the binding
same,binding of 7E11-C5 to immobilized peptide,[8],did not bind to either of the tested antibodies
PVQKEYGFFMSGAS MIRLLR ETP [7E11.12-3],relative binding to 7E11-C5 (fold less well than the best binders),[4],50 fold
QKGGPGLLLYGGDS MWITLH EPG [7E11.12-4],relative binding to 7E11-C5 (fold less well than the best binders),[4],5-10 fold
RDSAVENPSVGGEIP MYRYLH QR [7E11.12-2],relative binding to 7E11-C5 (fold less well than the best binders),[4],~ 2 fold
RLGNVWRVEGGG MYQQLH HNFPX^2 [7E11.12-1],inhibition of 7E11-C5 binding to its antigen by phage,[5],"inhibited the binding of 7E11-C5 monoclonal antibody to its antigen, in a dose dependent fashion"
same,relative binding to 7E11-C5 (fold less well than the best binders),[4],bound the best
SSCAYARYVPLLLLLYANPG MYSRLH SPAVRPLTQSSA [7E11.9-1],inhibition of 7E11-C5 binding to its antigen by phage,[5],also inhibited 7E11-C5 monoclonal antibody binding
same,relative binding to 7E11-C5 (fold less well than the best binders),[4],bound the best
SVQFKSISSRSMDDVVKDPGPKPA MWKMLH SKNPFTLS [7E11.9-2],relative binding to 7E11-C5 (fold less well than the best binders),[4],5-10 fold
TVAT MHDTLH SAPGSGNLPGSYDIKPIFKASGALHSTX^2 [7E11.9-4],relative binding to 7E11-C5 (fold less well than the best binders),[4],5-10 fold
YDHHSYNGDMHYPGWPPLPGPHHFAPIDVTTHSHTQPD [Zn1A1],"retention on Zn(II)-IDA, of recovered phage",[2],15%
imidazalidone,IC50,[1],~5000 µM
